The data set relates to skin. The experiment in a line: Bakuchiol penetration to skin from low pH formulations. The following applies: in low pH formulations compared to neutral/alkaline pH formulations.

As for `C=C[C@@](C)(/C=C/c1ccc(O)cc1)CCC=C(C)C` [bakuchiol, Bakuchiol], the Penetration to skin entry is on record as “improved penetration to skin”.
